Values joined by “and” are separate entries in the source; they are usually repeats but may differ in a detail not shown here. Equal entries are not always repeated. Each block holds one molecule with its values, some of them ahead of it.
Legend:
CYP2C9 = CYP2C9 (Homo sapiens, UniProt P11712); test: CYP2C9 activity in human liver microsomes
Text: (§1) Microsomes prepared from the livers of 15 humans was purchased from Nippon Nosanko.

rats with SAH = test: Effect on rCBF after SAH, drug given before SAH; assay type: in vivo, rat
Method: Animals. Experiments were performed on male Sprague-Dawley rats (9-12 weeks old), purchased from Harlan Sprague-Dawley, Inc. (Indianapolis, Ind.). The rats were housed in an Animal Care Facility at the Medical College of Wisconsin, which is approved by the American Association for the Accreditation of Laboratory Animal Care. All protocols involving animals received approval by the Animal Care Committee of the Medical College of Wisconsin.
(§2) Surgical preparation. Rats were anesthetized with ketamine (Ketaject® 20 mg/kg i.m.) and thiobutabarbital sodium (Inactin® 50 mg/kg i.p.). A cannula was placed in the trachea and the rats were artificially ventilated using a small animal ventilator (SAR-830, CWE, Inc., Ardmore, Pa.) with a mixture of 30% O2 in N2. The femoral vein was cannulated for the infusion of drug and the rats received an i.v. infusion of 0.9% NaCl solution at a rate of […] to replace fluid losses. The femoral artery was cannulated for measurement of mean arterial pressure (MAP) and arterial blood gases. Endtidal partial pressure of carbon dioxide (pCO2) was controlled at 38 mmHg by adjusting the minute ventilation according to the reading of an CO2 analyzer (Capstar-100 IITC, Inc., Woodland Hills, Calif.). Blood samples were collected at the beginning and end of the experiment and analyzed using a blood gas analyzer (ABL 300, Radiometer, Copenhagen, Denmark) to validate the endtidal pCO2 readings. Anesthesia was maintained by administering additional amounts of thiobutabarbital (8 mg/kg i.v.) as needed. Rectal body temperature was maintained at 37±1° C.
Induction of SAH and measurement of cerebral blood flow. SAH was induced by injection of 0.3 ml autologous arterial blood into the Cisterna Magna using a modification of a posterior cranio-cervical approach of a model of SAH. Delgado T J et al., Stroke 16: 595-602 (1985); Solomon R A et al., Stroke 16: 58-64 (1985). The head of the rat was placed in a stereotactic head holder and the atlanto-occipital membrane was exposed by bluntly separating the overlying neck muscles in the midline. The occipital bone and the atlas were visualized. A 30 gauge needle attached to PE-10 was inserted using a stereomicroscope into the Cistema Magna by penetrating the atlanto-occipital membrane. Then, 0.3 ml of freshly drawn unheparinized arterial blood was injected into the Cistema Magna at a rate of 35 μl/min using a syringe pump. This created a massive SAH that was confirmed in all rats at autopsy. Blood was found overlying the cerebello-medullary junction posteriorly and around the basal artery and the vessels of the Circle of Willis.
Cerebral blood flow (CBF) was continuously measured using laser Doppler flowmetry through a thinned cranial window. […] A PF 103 laser Doppler flow (LDF) probe was positioned over the cranial window and CBF was monitored using a PF-3 laser Doppler flowmeter (Perimed, Stockholm, Sweden).
Other animals received 17-ODYA (1.5 nmol) or vehicle in a volume of 50 μl that was injected directly into the Cistema Magna using a micromanipulator and a 30 gauge needle. The CBF recorded over the last 5 minutes of the control period immediately before initiation of SAH served as the control value. […] CBF was recorded for 2 min intervals at 10, 20, 30, 60, 90 and 120 minutes after completion of the injection of the blood. The CBF data are expressed as percentage change from control.

[1] = Physiological parameters (MAP, endtidal pCO2) during the SAH experiment; assay type: in vivo, rat; settings: rats, any time
Method: as §2

20-HETE in CSF = test: 20-HETE concentration in CSF after SAH; assay type: in vivo, rat; settings: rats, 2 hr after SAH, drug given prior to SAH
Method: Measurement of 20-HETE in CSF. At the end of each experiment, CSF was collected from the Cisterna Magna using a 1 ml syringe and a 30 gauge needle. […] 20-HETE concentration in CSF was measured using a new fluorescent HPLC assay that was recently described. […] Briefly, 50 ng of an internal standard 20-hydroxyeicosa-6(Z), 15(Z)-dienoic acid (WIT-002) was added to the CSF samples (50 μl). The samples were extracted with 1 mL of ethyl acetate, the extract was dried under argon and the lipid fraction was purified on a Sep-Pak Vac™ column (cat. no. WAT054955, Waters Corporation, Milford, Mass.). […] N,N-diisopropylethylamine (10 μl) was added to catalyze the reaction. The sample was reacted for 30 min at room temperature. […] The amount of 20-HETE in a sample was determined by comparing the area of the 20-HETE peak to that of the internal standard.

[2] = molecular target: human 20-HETE synthesizing enzyme; test: Formation of 20-HETE by human renal microsomes; assay type: biochemical; settings: read-out: IC50, formation of 20-HETE by human renal microsomes
Method: All reactions were terminated by acidification with 1% formic acid. Equal volume of acetonitrile was added and finally 50% acetonitrile mixtures were subjected to HPLC analysis.

CYP2C19 = molecular target: T1, CYP2C19 (Homo sapiens, UniProt P33261); test: CYP2C19 activity in human liver microsomes; assay type: in vitro ADME
T1 construct: The enzyme/substrate contained buffer, human liver microsomes and the following substrates; tissue Nippon Nosanko; host or cells: pooled human liver microsomes (15 donors)
T1 sequence (P33261 whole entry): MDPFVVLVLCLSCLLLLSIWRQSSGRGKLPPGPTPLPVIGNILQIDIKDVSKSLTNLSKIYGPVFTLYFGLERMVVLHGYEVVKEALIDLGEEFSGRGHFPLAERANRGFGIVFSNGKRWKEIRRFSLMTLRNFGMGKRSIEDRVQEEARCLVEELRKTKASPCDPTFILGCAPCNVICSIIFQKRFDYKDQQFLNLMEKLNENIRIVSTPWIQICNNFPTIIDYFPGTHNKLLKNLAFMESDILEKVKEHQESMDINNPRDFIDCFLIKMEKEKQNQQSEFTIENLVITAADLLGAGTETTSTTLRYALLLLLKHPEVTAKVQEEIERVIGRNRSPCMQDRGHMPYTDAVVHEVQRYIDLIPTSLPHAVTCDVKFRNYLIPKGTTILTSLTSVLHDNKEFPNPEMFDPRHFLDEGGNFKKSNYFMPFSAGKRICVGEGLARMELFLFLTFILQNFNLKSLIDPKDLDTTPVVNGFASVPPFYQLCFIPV
Text: as §1

CYP2D6 = CYP2D6 (Homo sapiens, UniProt P10635); test: in vitro
Chain of CYP2D6 (P10635 whole entry): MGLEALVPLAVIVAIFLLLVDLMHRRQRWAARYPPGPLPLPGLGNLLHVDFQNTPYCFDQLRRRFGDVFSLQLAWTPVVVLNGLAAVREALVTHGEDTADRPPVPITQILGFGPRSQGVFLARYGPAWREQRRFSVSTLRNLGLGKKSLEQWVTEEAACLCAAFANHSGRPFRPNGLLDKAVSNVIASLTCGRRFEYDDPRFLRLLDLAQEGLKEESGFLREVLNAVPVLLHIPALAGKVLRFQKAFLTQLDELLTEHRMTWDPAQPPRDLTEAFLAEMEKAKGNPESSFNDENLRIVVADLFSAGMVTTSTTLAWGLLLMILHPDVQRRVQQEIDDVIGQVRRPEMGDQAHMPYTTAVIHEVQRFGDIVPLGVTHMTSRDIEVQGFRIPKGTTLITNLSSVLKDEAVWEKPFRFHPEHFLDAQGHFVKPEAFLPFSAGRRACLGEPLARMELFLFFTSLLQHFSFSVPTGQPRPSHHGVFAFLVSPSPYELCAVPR
Text: as §1

CYP3A4 = CYP3A4 (Homo sapiens, UniProt P08684); test: in vitro; settings: microsomes
Chain of CYP3A4 (P08684 whole entry): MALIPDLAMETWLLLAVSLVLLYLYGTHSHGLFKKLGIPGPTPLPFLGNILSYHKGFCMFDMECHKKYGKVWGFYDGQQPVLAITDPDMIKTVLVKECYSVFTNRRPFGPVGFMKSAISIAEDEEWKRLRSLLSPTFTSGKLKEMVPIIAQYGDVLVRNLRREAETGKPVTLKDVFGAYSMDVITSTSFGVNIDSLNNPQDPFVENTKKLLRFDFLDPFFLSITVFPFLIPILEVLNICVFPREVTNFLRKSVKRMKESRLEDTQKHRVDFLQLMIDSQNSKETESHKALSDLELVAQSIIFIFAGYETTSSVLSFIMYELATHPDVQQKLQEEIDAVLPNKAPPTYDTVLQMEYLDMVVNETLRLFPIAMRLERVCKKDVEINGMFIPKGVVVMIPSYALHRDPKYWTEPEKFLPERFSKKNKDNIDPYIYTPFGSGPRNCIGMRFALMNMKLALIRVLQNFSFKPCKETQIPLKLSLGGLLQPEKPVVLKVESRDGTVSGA
Text: as §1

20-HETE formation = settings: read-out: IC50 for inhibition of 20-HETE formation; cited from earlier work
[3] = given systemically; cited from earlier work
[4] = tested on: 20-HETE synthesizing enzyme; test: 20-HETE formation in rat renal microsomes ([3H]-AA, Example 3); assay type: biochemical
Method: All procedure was carried out at 4° C. Renal cortex was pooled from twenty male SHR rats (6 weeks of age). They were homogenized extensively in lysis buffer (20 mM HEPES, pH 7.4, 1 mM EDTA, 100 μM p-(amidinophenyl)metanesulfonyl fluoride and 250 mM sucrose), and centrifuged at 16,000×g for 10 min. Supernatant was further centrifuged at 16,000×g for 30 min. Soluble fraction was collected and centrifuged at 200,000×g for 30 min. The resulting pellet was suspended in 50 mM MOPS buffer.
The reaction was terminated by adding formic acid and acetonitrile to a final concentration of 1% and 50%, respectively.

cerebral arteries = settings: read-out: EC50, constriction of cerebral arteries; cited from earlier work
cerebral blood flow = settings: intracerebroventricular injection; cited from earlier work
[5] = positive control, concentration not given
[6] = human, microsomes, % Inhibition (duplicate) CYP2D6
[7] = only at very high concentrations

Chain of CYP2C9 (P11712 whole entry): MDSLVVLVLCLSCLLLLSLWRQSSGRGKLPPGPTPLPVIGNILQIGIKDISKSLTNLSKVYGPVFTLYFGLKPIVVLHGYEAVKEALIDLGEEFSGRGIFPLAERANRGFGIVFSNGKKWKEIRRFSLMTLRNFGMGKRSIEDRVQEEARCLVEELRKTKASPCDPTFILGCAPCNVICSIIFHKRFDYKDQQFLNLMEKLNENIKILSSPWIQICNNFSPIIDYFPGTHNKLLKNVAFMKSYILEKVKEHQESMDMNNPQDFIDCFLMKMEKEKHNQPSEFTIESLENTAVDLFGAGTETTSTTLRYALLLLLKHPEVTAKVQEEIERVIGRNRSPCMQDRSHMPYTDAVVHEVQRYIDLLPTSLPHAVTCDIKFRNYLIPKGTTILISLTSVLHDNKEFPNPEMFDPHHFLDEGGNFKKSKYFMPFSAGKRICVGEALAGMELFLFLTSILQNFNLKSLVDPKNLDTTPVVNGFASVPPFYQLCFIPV

Compound: Nc1ccc(S(=O)(=O)Nc2ccnn2-c2ccccc2)cc1 [sulfaphenazol]
% Inhibition (duplicate) CYP2C9 (CYP2C9; [5]): 91%

endtidal pCO2 versus vehicle [1]: no significant differences
IC50 [2]: 1800 ± 800 nM
inhibition at 10 µM (CYP2C19; human, human liver microsomes, probe 14C-(S)-mephenyloin (4′-hydroxylation), inhibitor 10 μM, read-out: % Inhibition (duplicate) CYP2C19): 10%
% Inhibition (duplicate) CYP2C9 (CYP2C9; human, microsomes, 10 µM): 23%
inhibition at 10 µM (CYP2C9; human, microsomes, % Inhibition (duplicate) CYP2C9): 20 to 30%
inhibition at 10 µM (CYP2D6; [6]): -3%
% Inhibition (duplicate) CYP3A4 (CYP3A4; 10 µM): 29%
inhibition at 10 µM (CYP3A4; % Inhibition (duplicate) CYP3A4): 20 to 30%
Compound: C#CCCCCCCCCCCCCCCCC(=O)O [17-ODYA, 17-Octadecynoic acid]
fall in cerebral blood flow following SAH (rats with SAH; 1.5 nmol into the Cisterna Magna of rats): completely blocked
reduction of the initial fall in rCBF at 10 min (rats with SAH; rats pretreated before SAH, HET0016 10 mg/kg i.v. 30 min prior, 17-ODYA 1.5 nmol intrathecally): about 40%
time after induction of SAH within which rCBF recovered fully to values not different from control (rats with SAH; rats pretreated before SAH, HET0016 10 mg/kg i.v., 17-ODYA 1.5 nmol intrathecally): ≤ 90 min
MAP (blood pressure) versus vehicle [1]: no difference
concentration of 20-HETE in the CSF versus vehicle (20-HETE in CSF): significantly lower concentration
IC50 (20-HETE formation): 1000 nM
crossing of the blood brain barrier [3]: does not cross the blood brain barrier

concentrations at which the formation of 20-HETE was inhibited [4, 7]: 10 to 20 µg/mL
concentrations at which the formation of 20-HETE was inhibited (molar) [4, 7]: 21 to 42 µM
Compound: Clc1ccc(COC(Cn2ccnc2)c2ccc(Cl)cc2Cl)c(Cl)c1 (stereo not drawn) [miconazole]

Compound: O=C(O)CCCC=CCC=CCC=CCC=CCCCCCO [20-HETE, 20-hydroxyeicosetetraenoic acid]
EC50 (cerebral arteries): < 10 nM

Compound: CS(=O)(=O)NC(=O)CCCCCCCCCC=C(Br)Br [DDMS]
IC50 (20-HETE formation): 3000 nM
crossing of the blood brain barrier [3]: does not cross the blood-brain barrier
effect on baseline cerebral blood flow (cerebral blood flow): no effect

IC50, formation of both EETs and 20-HETE ([4]; SHR rat renal microsomes, nonselective inhibitor): approximately 20 μg/ml
IC50 ([4]; read-out: IC50, formation of both EETs and 20-HETE (molar), SHR rat renal microsomes, nonselective inhibitor): ~150000 nM
IC50 [2]: 38500 ± 14900 nM
% Inhibition (duplicate) CYP2C19 (CYP2C19; inhibitor 100 μM, 100 µM): 40-80% and 75%
% Inhibition (duplicate) CYP2D6 (CYP2D6; human, microsomes, 100 µM): 42%
inhibition at 100 µM (CYP2D6; [6]): 40 to 80%
% Inhibition (duplicate) CYP3A4 (CYP3A4; 100 µM): 81%
Compound: Nn1nnc2ccccc21 [1-ABT, 1-aminobenzotriazole]

Compound: C=C[C@H]1C[N@@]2CC[C@H]1C[C@@H]2[C@@H](O)c1ccnc2ccc(OC)cc12 [Quinidine]
% Inhibition (duplicate) CYP2D6 (CYP2D6; [5]): 91%

— patent US7307101B2, “Use of 20-HETE synthesizing enzyme inhibitors as therapy for cerebral vascular disease” (MCW Research Foundation, Inc., priority 2000, dated 2007)
